The source of these data is patent US12576075B2, “Combination therapies for treating cancer” (Institute For Cancer Research, priority 2018, dated 2026).

In test [1] the test system is 786-O cells. In words: Dose-dependent anti-proliferative effects on 786-O cells (dose response). Format: cell-based, human. Conditions: for ED75 / ED90: single drug dose response; for EC50: Homo sapiens, 786-0, single drug dose response, read-out: ED50 (the source's name).
Test [2] deals with PNX0010 RCC cells. In words: Cell viability, […]-BLUE assay, PNX0010. In kind it is cell-based, human. On the set-up: dose or concentration left out as unconfirmed. The following applies: 72 hours. The procedure: (§1) Treatment with lonafarnib can reinstate sensitivity of RCC cells to TKIs. Pharmacological inhibition of FTase enhances the antitumor activity of sunitinib. Referring to FIG. 3, in Panel A, PNX0010 and 786-O RCC cells were treated with various combinations of lonafarnib ([…]), sunitinib ([…]), and pazopanib ([…]) for 72 hours. Cell viability was examined using Blue […]-BLUE® assay (PROMEGA®). In Panel B, 786-O and PNX0010 RCC cells were treated with lonafarnib ([…]) and/or sunitinib ([…]) for 24 hours. DNA fragmentation was examined by the APO-BRDU kit (The Phoenix Flow Systems) followed by flow cytometry analysis.

Test [3] relates to PNXC0010 RCC tumors. Format: in vivo. Conditions: PNX0010 subcutaneous xenografts, C.B17/lcrscid mice, 40 mg/kg each drug, orally 3 times/week. The procedure: PNX0010 subcutaneous xenografts were established in 6 week old male C.B17/lcrscid mice. The mice were treated orally 3 times/week with (i) 10% 2-hydroxypropyl-b-cyclodextrin in PBS (control); (ii) sunitinib (40 mg/kg); (iii) lonafarnib (40 mg/kg); or with sunitinib and lonafarnib combined (n=5 mice/group). Tumor volumes were calculated by the formula: (volume=0.52×(width)2×length).

For test [4], the system named is 786-O cells. As to the kind of experiment: Lysosomal sequestration of sunitinib by fluorescent microscopy. In kind it is cell-based, human. The arrangement: Sequestration of sunitinib within lysosomes: dose or concentration left out as unconfirmed.
For test [5], the system named is 786-O RCC cells. In words: Cell viability, […]-BLUE assay, 786-O. On the set-up: dose or concentration left out as unconfirmed. Format: cell-based, human. The following applies: 72 hours. As for the experimental part:
as §1

In test [1], `CNC(=O)c1ccccc1Sc1ccc2c(/C=C/c3ccccn3)n[nH]c2c1` [Axitinib, axitinib] had an ED75 of 7.5 µM and an ED90 of 65.1 µM.

In the case of `NC(=O)N1CCC(CC(=O)N2CCC([C@H]3c4ncc(Br)cc4CCc4cc(Cl)cc(Br)c43)CC2)CC1` [Lonafarnib, lonafarnib], in test [1], the EC50 is 3.8 µM, the ED75 came to 63.3 µM and the ED90 is 5672.0 µM. Further, the “Effect on cell viability” value in test [2] is on record as “modest effect”. Besides, the “Growth of xenograft tumors (tumor volume)” value in test [3] was “moderate decrease”. The “Sequestration of sunitinib within lysosomes” value in test [4] (60 minutes) is recorded as “significantly reduced”. In test [4] (effect of lonafarnib, data not shown), the “Total cellular accumulation of sunitinib” value is given as “not affected”. In addition, the “Effect on cell viability” value in test [5] is listed as “modest effect”.

Consider `CCN(CC)CCNC(=O)c1c(C)[nH]c(/C=C2\C(=O)Nc3ccc(F)cc32)c1C` [Sunitinib, sunitinib], for which, in test [1], the EC50 is 2.4 µM, the ED75 is 6.7 µM and the ED90 came out at 44.3 µM.
